Measurements taken from article PMC5517026, “Crystal structure and functional characterization of an isoaspartyl dipeptidase (CpsIadA) from Colwellia psychrerythraea strain 34H” (PLoS ONE, 2017).
Where a SMILES comes first, the peptide text is derived from it.

Columns and labels:
[1] = target: T1, CpsIadA (Colwellia psychrerythraea, UniProt Q484B6); assay: coupled assay with L-alanine dehydrogenase/diaphorase, INT reduction at […] nm; assay type: biochemical; settings: 100 mM HEPES pH 8.0, 1.5 mM INT, 1.5 mM NAD+, 30°C
T1 construct: gene iadA; Ni-NTA and gel filtration; homo-octamer (314 kDa by AUC), two Zn ions per active site
T1 sequence (Q484B6 entry or part of it): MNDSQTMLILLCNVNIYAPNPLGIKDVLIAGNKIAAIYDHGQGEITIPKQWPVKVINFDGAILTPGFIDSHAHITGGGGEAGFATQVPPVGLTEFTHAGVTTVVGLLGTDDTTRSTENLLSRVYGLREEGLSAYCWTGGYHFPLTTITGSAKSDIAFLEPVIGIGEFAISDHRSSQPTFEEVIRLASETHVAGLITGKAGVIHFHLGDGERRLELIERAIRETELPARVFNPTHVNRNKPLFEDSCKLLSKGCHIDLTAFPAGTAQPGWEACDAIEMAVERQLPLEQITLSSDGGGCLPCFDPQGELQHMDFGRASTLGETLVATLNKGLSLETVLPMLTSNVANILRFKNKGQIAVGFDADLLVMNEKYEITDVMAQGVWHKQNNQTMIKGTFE

[2] = target: T1, CpsIadA; assay: coupled spectrophotometric assay (aspartate aminotransferase/malate dehydrogenase, NADH at […] nm); assay type: biochemical; settings: 100 mM HEPES pH 8.0, 100 mM KCl, 30°C
[3] = target: isoaspartyl dipeptidase from Colwellia psychrerythraea strain 34H (CpsIadA), wild type (Colwellia psychrerythraea strain 34H) (UniProt Q484B6); assay: SEC; analytical size-exclusion chromatography; conditions not given; self-association (octamer)
[4] = target: isoaspartyl dipeptidase from Colwellia psychrerythraea strain 34H (CpsIadA), wild type (Colwellia psychrerythraea strain 34H) (UniProt Q484B6); assay: crystal structure; ligand-free wild type CpsIadA, 1.85 Å, space group P4212, two monomers in the asymmetric unit; 0.1 M Bis-Tris propane pH 7.0, 1.4 M sodium malonate, 293 K
[5] = target: isoaspartyl dipeptidase from Colwellia psychrerythraea strain 34H (CpsIadA), wild type (Colwellia psychrerythraea strain 34H) (UniProt Q484B6); assay: AUC; sedimentation velocity, 20°C, 0.5 mg/mL CpsIadA, 25 mM Tris-HCl pH 8.0, 200 mM NaCl, 5 mM MgCl2, 2 mM dithiothreitol, 45,000 rpm, SEDFIT; self-association (octamer)
[6] = target: T2, CpsIadA (Colwellia psychrerythraea, UniProt Q484B6, E80Q, form not given); assay: X-ray crystal structure of the complex ([…] Å); assay type: binding; settings: active site, two Zn ions; 5 mM ligand added before crystallization; catalytically inactive mutant
T2 construct: gene iadA; Ni-NTA and gel filtration; homo-octamer (314 kDa by AUC), two Zn ions per active site
T2 sequence (Q484B6 entry or part of it E80Q, form open): as the sequence (Q484B6 entry or part of it) above, with E80Q counted along it

[7] = target: CpsIadA E80Q mutant (Colwellia psychrerythraea strain 34H) (UniProt Q484B6); assay: crystal structure; CpsIadA E80Q mutant with 5 mM β-aspartyl lysine, 2.33 Å, space group P4212, two monomers in the asymmetric unit; 0.1 M Bis-Tris propane pH 7.0, 1 M ammonium citrate tribasic pH 7.0, 293 K

Km [2] | Compound | other results
– | C[C@H](NC(=O)CCN)C(=O)O [β-Ala-Ala] | Km [1]: 930 ± 300 µM
4700 ± 400 µM | N[C@@H](CC(=O)NCC(=O)O)C(=O)O [β-Asp-Gly] | –
6900 ± 400 µM | CC(C)C[C@H](NC(=O)[C@@H](N)CC(=O)O)C(=O)O [α-Asp-Leu] (H-Asp-Leu-OH) | –
5300 ± 500 µM | N[C@@H](CC(=O)N[C@@H](Cc1c[nH]cn1)C(=O)O)C(=O)O [β-Asp-His] | –
– | isoaspartyl dipeptidase from Colwellia psychrerythraea strain 34H (CpsIadA), wild type (from UniProt Q484B6 1-395) (enzyme) | stoichiometry N [3]: 8; stoichiometry N [4]: 8; stoichiometry N [5]: 8
1200 ± 300 µM | C[C@H](NC(=O)C[C@H](N)C(=O)O)C(=O)O [β-Asp-Ala] | –
1100 ± 90 µM | NCCCC[C@H](NC(=O)C[C@H](N)C(=O)O)C(=O)O [β-Asp-Lys] | X-ray crystal structure of the complex (2.33 Å) [6]: β-isoaspartyl lysine bound CpsIadA E80Q mutant have been deposited in the Protein Data Bank
490 ± 90 µM | N[C@@H](CC(=O)N[C@@H](Cc1ccccc1)C(=O)O)C(=O)O [β-Asp-Phe] | –
710 ± 80 µM | CC(C)C[C@H](NC(=O)C[C@H](N)C(=O)O)C(=O)O [β-Asp-Leu] | –
– | CpsIadA E80Q mutant (from UniProt Q484B6 1-395) (enzyme) | stoichiometry N [7]: 8
